Results as given in EP0908457B1, “3-(1,2-benzisothiazol- and isoxazol-5-Y1)-2,4(1H,3H)-pyrimidinedione or thione and 3-(1,2-benzisothiazol- and isoxazol-5-y1)-4(3H)-pyrimidinone or thione herbicidal agents” (BASF AKTIENGESELLSCHAFT, priority 1997, dated 1999).

Key:
[1] = test system: Echinochloa oryzoides (Ard.) Fritsch.; assay: Preemergence weed control under flooded paddy conditions, ECHORC (Watergrass (Calif.)); assay type: in vivo; settings: flooded paddy; for herbicidal effect rating, ECHORC: preemergence, rated three to four weeks after treatment; for ECHORC: preemergence weeds, herbicidal effect rating 0-9, three to four weeks after treatment; for herbicidal effect rating, ECHORC: meaning of each grade not given here
Cyperus iria [2] = assay: Preemergence weed control under flooded paddy conditions, CYPIR (Rice Flatsedge); assay type: in vivo; settings: flooded paddy; for herbicidal effect rating, CYPIR: preemergence, rated three to four weeks after treatment; for CYPIR: preemergence weeds, herbicidal effect rating 0-9, three to four weeks after treatment; for herbicidal effect rating, CYPIR: meaning of each grade not given here
[3] = test system: Cyperus serotinus, Rottb.; assay: Preemergence weed control under flooded paddy conditions, CYPSE (Flatsedge); assay type: in vivo; settings: for herbicidal effect rating, CYPSE: preemergence, rated three to four weeks after treatment; for CYPSE: preemergence weeds, herbicidal effect rating 0-9, three to four weeks after treatment; for herbicidal effect rating, CYPSE: meaning of each grade not given here
[4] = test system: Monochoria vaginalis, Presl.; assay: Preemergence weed control under flooded paddy conditions, MOOVA (Monochoria); assay type: in vivo; settings: flooded paddy; for herbicidal effect rating, MOOVA: preemergence, rated three to four weeks after treatment; for MOOVA: preemergence weeds, herbicidal effect rating 0-9, three to four weeks after treatment; for herbicidal effect rating, MOOVA: meaning of each grade not given here
Sagittaria pygmaea, L. [5] = assay: Preemergence weed control under flooded paddy conditions, SAGPY (Arrowhead (Pygmaea)); assay type: in vivo; settings: flooded paddy; for herbicidal effect rating, SAGPY: preemergence, rated three to four weeks after treatment; for SAGPY: preemergence weeds, herbicidal effect rating 0-9, three to four weeks after treatment; for herbicidal effect rating, SAGPY: meaning of each grade not given here
[6] = test system: Echinochloa oryzoides (Ard.) Fritsch.; assay: Postemergence weed control under flooded paddy conditions, ECHORC (Watergrass (Calif.)); assay type: in vivo; settings: rated three to four weeks after treatment
Cyperus iria [7] = assay: Postemergence weed control under flooded paddy conditions, CYPIR (Rice Flatsedge); assay type: in vivo; settings: rated three to four weeks after treatment
[8] = test system: Cyperus serotinus, Rottb.; assay: Postemergence weed control under flooded paddy conditions, CYPSE (Flatsedge); assay type: in vivo; settings: rated three to four weeks after treatment
[9] = test system: Monochoria vaginalis, Presl.; assay: Postemergence weed control under flooded paddy conditions, MOOVA (Monochoria); assay type: in vivo; settings: rated three to four weeks after treatment
Sagittaria pygmaea, L. [10] = assay: Postemergence weed control under flooded paddy conditions, SAGPY (Arrowhead (Pygmaea)); assay type: in vivo; settings: rated three to four weeks after treatment
[11] = test system: Oryza sativa, (L.) Tebonnet; assay: Rice tolerance to post-transplant applications under flooded paddy conditions (Example 187), ORYSAT (Rice, Tebonnet); settings: for herbicidal effect rating, ORYSAT (rice tolerance): rated three to four weeks after treatment; for ORYSAT: herbicidal effect rating 0-9, three to four weeks after treatment
[12] = test system: Oryza sativa, (L.) Tebonnet; assay: Rice tolerance to post-transplant applications under flooded paddy conditions (Example 188), ORYSAT (Rice, Tebonnet); settings: rated three to four weeks after treatment

COC(=O)C(C)Oc1cc(C)c(C)cc1-c1nsc2ccc(-n3c(=O)cc(C(F)(F)F)n(C)c3=O)cc12 (stereo not drawn) [Example 13, Methyl 2-{{6-{5-[3,6-dihydro-3-methyl-4-(trifluoromethyl)-2,6-dioxo-1(2H)-pyrimidinyl]-1,2-benzisothiazol-3-yl}-3,4-xylyl}oxy}propionate]
herbicidal effect rating, ECHORC ([1]; 0.0313 kg/ha): 9.0
herbicidal effect rating, ECHORC ([1]; 0.0625 kg/ha): 9.0
herbicidal effect rating, ECHORC ([1]; 0.1250 kg/ha): 9.0
herbicidal effect rating, ECHORC ([1]; 0.2500 kg/ha): 9.0
herbicidal effect rating, ECHORC ([1]; 0.5000 kg/ha): 9.0
herbicidal effect rating, CYPIR (Cyperus iria [2]; 0.0313 kg/ha): 9.0
herbicidal effect rating, CYPIR (Cyperus iria [2]; 0.0625 kg/ha): 9.0
herbicidal effect rating, CYPIR (Cyperus iria [2]; 0.1250 kg/ha): 9.0
herbicidal effect rating, CYPIR (Cyperus iria [2]; 0.2500 kg/ha): 9.0
herbicidal effect rating, CYPIR (Cyperus iria [2]; 0.5000 kg/ha): 9.0
herbicidal effect rating, CYPSE ([3]; 0.0313 kg/ha): 0.0
herbicidal effect rating, CYPSE ([3]; 0.0625 kg/ha): 2.0
herbicidal effect rating, CYPSE ([3]; 0.1250 kg/ha): 7.0
herbicidal effect rating, CYPSE ([3]; 0.2500 kg/ha): 7.0
herbicidal effect rating, CYPSE ([3]; 0.5000 kg/ha): 7.0
herbicidal effect rating, MOOVA ([4]; 0.0313 kg/ha): 9.0
herbicidal effect rating, MOOVA ([4]; 0.0625 kg/ha): 9.0
herbicidal effect rating, MOOVA ([4]; 0.1250 kg/ha): 9.0
herbicidal effect rating, MOOVA ([4]; 0.2500 kg/ha): 9.0
herbicidal effect rating, MOOVA ([4]; 0.5000 kg/ha): 9.0
herbicidal effect rating, SAGPY (Sagittaria pygmaea, L. [5]; 0.0313 kg/ha): 0.0
herbicidal effect rating, SAGPY (Sagittaria pygmaea, L. [5]; 0.0625 kg/ha): 2.0
herbicidal effect rating, SAGPY (Sagittaria pygmaea, L. [5]; 0.1250 kg/ha): 6.0
herbicidal effect rating, SAGPY (Sagittaria pygmaea, L. [5]; 0.2500 kg/ha): 8.0
herbicidal effect rating, SAGPY (Sagittaria pygmaea, L. [5]; 0.5000 kg/ha): 9.0
herbicidal effect rating, ECHORC ([6]; Rate 0.0313 kg/ha): 0.0
herbicidal effect rating, ECHORC ([6]; Rate 0.0625 kg/ha): 2.0
herbicidal effect rating, ECHORC ([6]; Rate 0.1250 kg/ha): 6.0
herbicidal effect rating, ECHORC ([6]; Rate 0.2500 kg/ha): 8.0
herbicidal effect rating, ECHORC ([6]; Rate 0.5000 kg/ha): 9.0
herbicidal effect rating, CYPIR (Cyperus iria [7]; Rate 0.0313 kg/ha): 9.0
herbicidal effect rating, CYPIR (Cyperus iria [7]; Rate 0.0625 kg/ha): 9.0
herbicidal effect rating, CYPIR (Cyperus iria [7]; Rate 0.1250 kg/ha): 9.0
herbicidal effect rating, CYPIR (Cyperus iria [7]; Rate 0.2500 kg/ha): 9.0
herbicidal effect rating, CYPIR (Cyperus iria [7]; Rate 0.5000 kg/ha): 9.0
herbicidal effect rating, CYPSE ([8]; Rate 0.0313 kg/ha): 0.0
herbicidal effect rating, CYPSE ([8]; Rate 0.0625 kg/ha): 0.0
herbicidal effect rating, CYPSE ([8]; Rate 0.1250 kg/ha): 2.0
herbicidal effect rating, CYPSE ([8]; Rate 0.2500 kg/ha): 4.0
herbicidal effect rating, CYPSE ([8]; Rate 0.5000 kg/ha): 2.0
herbicidal effect rating, MOOVA ([9]; Rate 0.0313 kg/ha): 9.0
herbicidal effect rating, MOOVA ([9]; Rate 0.0625 kg/ha): 9.0
herbicidal effect rating, MOOVA ([9]; Rate 0.1250 kg/ha): 9.0
herbicidal effect rating, MOOVA ([9]; Rate 0.2500 kg/ha): 9.0
herbicidal effect rating, MOOVA ([9]; Rate 0.5000 kg/ha): 9.0
herbicidal effect rating, SAGPY (Sagittaria pygmaea, L. [10]; Rate 0.0313 kg/ha): 0.0
herbicidal effect rating, SAGPY (Sagittaria pygmaea, L. [10]; Rate 0.0625 kg/ha): 0.0
herbicidal effect rating, SAGPY (Sagittaria pygmaea, L. [10]; Rate 0.1250 kg/ha): 2.0
herbicidal effect rating, SAGPY (Sagittaria pygmaea, L. [10]; Rate 0.2500 kg/ha): 2.0
herbicidal effect rating, SAGPY (Sagittaria pygmaea, L. [10]; Rate 0.5000 kg/ha): 9.0
herbicidal effect rating, ORYSAT (rice tolerance) ([11]; 0.0313 kg/ha): 4.0
herbicidal effect rating, ORYSAT (rice tolerance) ([11]; 0.0625 kg/ha): 6.0
herbicidal effect rating, ORYSAT (rice tolerance) ([11]; 0.1250 kg/ha): 7.0
herbicidal effect rating, ORYSAT (rice tolerance) ([11]; 0.2500 kg/ha): 7.0
herbicidal effect rating, ORYSAT (rice tolerance) ([11]; 0.5000 kg/ha): 9.0
herbicidal effect rating, ORYSAT (rice tolerance) ([12]; Rate 0.0313 kg/ha): 2.0
herbicidal effect rating, ORYSAT (rice tolerance) ([12]; Rate 0.0625 kg/ha): 2.0
herbicidal effect rating, ORYSAT (rice tolerance) ([12]; Rate 0.1250 kg/ha): 4.0
herbicidal effect rating, ORYSAT (rice tolerance) ([12]; Rate 0.2500 kg/ha): 4.0
herbicidal effect rating, ORYSAT (rice tolerance) ([12]; Rate 0.5000 kg/ha): 7.0

COc1cc(C)c(I)cc1-c1nsc2ccc(-n3c(=O)cc(C(F)(F)F)n(C)c3=O)cc12 [Example 429, 2,4(1H,3H)-Pyrimidinedione, 3-[3-(5-iodo-2-methoxy-p-tolyl)-1,2-benzisothiazol-5-yl]-1-methyl-6-(trifluoromethyl)-]
ECHORC ([1]; 0.0320 kg/ha): 9.0
ECHORC ([1]; 0.0620 kg/ha): 9.0
ECHORC ([1]; 0.1250 kg/ha): 9.0
ECHORC ([1]; 0.2500 kg/ha): 9.0
CYPIR (Cyperus iria [2]; 0.0320 kg/ha): 7.3
CYPIR (Cyperus iria [2]; 0.0620 kg/ha): 7.7
CYPIR (Cyperus iria [2]; 0.1250 kg/ha): 8.3
CYPIR (Cyperus iria [2]; 0.2500 kg/ha): 9.0
CYPSE ([3]; 0.0320 kg/ha): 0.0
CYPSE ([3]; 0.0620 kg/ha): 1.0
CYPSE ([3]; 0.1250 kg/ha): 1.0
CYPSE ([3]; 0.2500 kg/ha): 1.0
MOOVA ([4]; 0.0320 kg/ha): 9.0
MOOVA ([4]; 0.0620 kg/ha): 9.0
MOOVA ([4]; 0.1250 kg/ha): 9.0
MOOVA ([4]; 0.2500 kg/ha): 9.0
SAGPY (Sagittaria pygmaea, L. [5]; 0.0320 kg/ha): 2.0
SAGPY (Sagittaria pygmaea, L. [5]; 0.0620 kg/ha): 2.3
SAGPY (Sagittaria pygmaea, L. [5]; 0.1250 kg/ha): 2.3
SAGPY (Sagittaria pygmaea, L. [5]; 0.2500 kg/ha): 3.0
herbicidal effect rating, ECHORC ([6]; Rate 0.0320 kg/ha): 4.0
herbicidal effect rating, ECHORC ([6]; Rate 0.0620 kg/ha): 6.0
herbicidal effect rating, ECHORC ([6]; Rate 0.1250 kg/ha): 6.0
herbicidal effect rating, ECHORC ([6]; Rate 0.2500 kg/ha): 9.0
herbicidal effect rating, CYPIR (Cyperus iria [7]; Rate 0.0320 kg/ha): 4.0
herbicidal effect rating, CYPIR (Cyperus iria [7]; Rate 0.0620 kg/ha): 6.0
herbicidal effect rating, CYPIR (Cyperus iria [7]; Rate 0.1250 kg/ha): 7.0
herbicidal effect rating, CYPIR (Cyperus iria [7]; Rate 0.2500 kg/ha): 9.0
herbicidal effect rating, CYPSE ([8]; Rate 0.0320 kg/ha): 0.0
herbicidal effect rating, CYPSE ([8]; Rate 0.0620 kg/ha): 0.0
herbicidal effect rating, CYPSE ([8]; Rate 0.1250 kg/ha): 0.0
herbicidal effect rating, CYPSE ([8]; Rate 0.2500 kg/ha): 0.0
herbicidal effect rating, MOOVA ([9]; Rate 0.0320 kg/ha): 2.0
herbicidal effect rating, MOOVA ([9]; Rate 0.0620 kg/ha): 4.0
herbicidal effect rating, MOOVA ([9]; Rate 0.1250 kg/ha): 7.0
herbicidal effect rating, MOOVA ([9]; Rate 0.2500 kg/ha): 7.0
herbicidal effect rating, SAGPY (Sagittaria pygmaea, L. [10]; Rate 0.0320 kg/ha): 0.0
herbicidal effect rating, SAGPY (Sagittaria pygmaea, L. [10]; Rate 0.0620 kg/ha): 0.0
herbicidal effect rating, SAGPY (Sagittaria pygmaea, L. [10]; Rate 0.1250 kg/ha): 0.0
herbicidal effect rating, SAGPY (Sagittaria pygmaea, L. [10]; Rate 0.2500 kg/ha): 0.0
ORYSAT ([11]; 0.0320 kg/ha): 1.3
ORYSAT ([11]; 0.0620 kg/ha): 2.0
ORYSAT ([11]; 0.1250 kg/ha): 2.3
ORYSAT ([11]; 0.2500 kg/ha): 3.0
herbicidal effect rating, ORYSAT (rice tolerance) ([12]; Rate 0.0320 kg/ha): 1.0
herbicidal effect rating, ORYSAT (rice tolerance) ([12]; Rate 0.0620 kg/ha): 1.0
herbicidal effect rating, ORYSAT (rice tolerance) ([12]; Rate 0.1250 kg/ha): 2.0
herbicidal effect rating, ORYSAT (rice tolerance) ([12]; Rate 0.2500 kg/ha): 2.0
